Results reported in US7833531B2, “Method for treating insulin sensitivity by long-acting GLP-1 receptor mimetibody agonists” (Centocor, Inc., priority 2006, dated 2010).
“Also recorded” adds a separate entry of the source.

Experiments:
Format in all cases: in vivo
[1] = tested on: DIO mice; experiment: Hyperinsulinemic euglycemic clamp, body weights and plasma parameters in DIO mice after acute treatment; conditions: for Body weight / FFA / Glucose / Glycerol / Insulin: single i.p. injection, mean ± SD; for FFA / Glucose / Glycerol / Insulin: plasma
Procedure: (§1) The effect of acute treatment of CNTO 736 (Table 4, SEQ ID NO:70) on insulin sensitivity and lipid metabolism was evaluated in C57Bl mice maintained on a high fat diet for 10 weeks (DIO mice). […] The effect of chronic treatment of CNTO 736 on insulin sensitivity and lipid metabolism was evaluated in C57Bl mice maintained on a high fat diet for 10 weeks. […] The hyperinsulinemic-euglycemic clamp was performed under Acepromazine (6.25 mg/kg)/Midazolam (6.25 mg/kg)/Fentanyl (0.3125 mg/kg) anaesthesia in the following manner. Mice had free access to high fat food and water until 10 hours prior to the clamp. […] Subsequently, insulin was administered in a primed (4.5 mU) continuous (6.8 mU/h) i.v. infusion for approximately 2 h to attain steady state circulating insulin levels of 4 ng/ml. […] VLDL-TG production was calculated from the slope of the concentration curve and expressed as gmol/kg/min. Turnover rates of glucose (μmol/min/kg) was calculated in basal and hyperinsulinemic conditions as the rate of tracer infusion (dpm/min) divided by the plasma specific activity of 14C-glucose (dpm/μmol). The ratio was corrected for body weight. Endogenous glucose production (EGP) was calculated as the difference between the tracer-derived rate of glucose appearance and the infusion rate of glucose. Glucose disposal was calculated based on the concentration of 14C-glucose normalized to infusion rate of glucose. The statistical significance (p<0.05) in various measures of glucose turnover and VLDL production among groups was tested by analysis of variance.

[2] = tested on: Sprague-Dawley rats; experiment: Intracerebroventricular (icv) dosing in rats: food intake, water intake, body weight; conditions: icv 3 nmols
Excerpt: Sprague-Dawley rats weighing 250-350 g were cannulized into the lateral ventricle at the following coordinates: −0.80 mm anterior, +1.2 mm lateral to bregma, −3.2 mm ventral to bregma. Animals were submitted for Angiotensin II testing to confirm that the cannulas were placed appropriately. Rats were acclimated to a reversed light/dark cycle and to handling. A 24-hour fasted/refed measurement was taken after a single PBS injection in order to establish a feeding baseline. Animals were evenly distributed according to 24-hour food intake from PBS injections (3 groups of 10 animals). Seven-ten days following PBS injection, rats were fasted for 24 hours and were dosed icv prior to entering the dark cycle.

[3] = tested on: DIO mice; experiment: VLDL production in DIO mice after acute treatment
Procedure: (§2) The effect of acute treatment of CNTO 736 (Table 4, SEQ ID NO:70) on insulin sensitivity and lipid metabolism was evaluated in C57Bl mice maintained on a high fat diet for 10 weeks (DIO mice). […] The effect of chronic treatment of CNTO 736 on insulin sensitivity and lipid metabolism was evaluated in C57Bl mice maintained on a high fat diet for 10 weeks.
(§3) Blood samples (20 μl) were taken at t=0, 10, 20, 40 and 60 minutes after injection to determine the concentration of plasma triglycerides (TG). VLDL-TG production was calculated from the slope of the concentration curve and expressed as gmol/kg/min. Turnover rates of glucose (μmol/min/kg) was calculated in basal and hyperinsulinemic conditions as the rate of tracer infusion (dpm/min) divided by the plasma specific activity of 14C-glucose (dpm/μmol). The ratio was corrected for body weight. Endogenous glucose production (EGP) was calculated as the difference between the tracer-derived rate of glucose appearance and the infusion rate of glucose. Glucose disposal was calculated based on the concentration of 14C-glucose normalized to infusion rate of glucose. The statistical significance (p<0.05) in various measures of glucose turnover and VLDL production among groups was tested by analysis of variance.

[4] = tested on: DIO mice; experiment: Hyperinsulinemic euglycemic clamp, body weights and plasma parameters in DIO mice after chronic treatment; conditions: for Body weight / FFA / Glycerol / Insulin / Glucose: daily i.p. injections weeks 7 through 10, mean ± SD; for FFA / Glycerol / Insulin / Glucose: plasma
Procedure: as §1, with “variance. […] Two hours after the last dose, mice were subjected to hyperinsulinemic euglycemic clamp.” for “variance.”

[5] = tested on: DIO mice; experiment: VLDL production in DIO mice after chronic treatment; conditions: either dose of CNTO 736
Procedure: as §2, §3

[6] = acute, i.p., CNTO 736 1 mg/kg and 0.1 mg/kg, exenatide 7.1 ug/ml, clamp 2 hours post dosing, differences do not reach statistical significance
[7] = acute, CNTO 736 0.1 mgk, Hyperinsulinemic
[8] = acute, CNTO 736 1 mgk, Hyperinsulinemic
[9] = 24 hours fasted rats, first 12 hours following dosing
[10] = second 12 hours following dosing (12-24 hours)
[11] = chronic, CNTO 736 0.1 mgk, Basal
[12] = chronic, CNTO 736 0.1 mgk, Hyperinsulinemic
[13] = chronic, CNTO 736 1 mgk, Hyperinsulinemic

CNTO 736: a GLP-1 receptor agonist, a GLP-1 mimetibody construct; sequence in Table 4 (SEQ ID NO:70)
glycerol turnover (lipolysis) ([1]; acute administration, either dose, basal (fasting) or hyperinsulinemic conditions): did not affect glycerol turnover
basal glucose production [1, 6]: tend to decrease the basal glucose production
whole body glucose disposal [1, 6]: increase the whole body glucose disposal
Body weight ([1]; acute, CNTO 736 0.1 mgk, Basal): 31.3 ± 1.6 g
Body weight [1, 7]: 31.3 ± 1.6 g
Body weight ([1]; acute, CNTO 736 1 mgk, Basal): 31.2 ± 2.2 g
Body weight [1, 8]: 31.2 ± 2.2 g
FFA ([1]; acute, CNTO 736 0.1 mgk, Basal): 1.1 ± 0.5 mmol/L
Glucose ([1]; acute, CNTO 736 0.1 mgk, Basal): 5.5 ± 1.2 mmol/L
Glycerol ([1]; acute, CNTO 736 0.1 mgk, Basal): 0.2 ± 0.1 mmol/L
Insulin ([1]; acute, CNTO 736 0.1 mgk, Basal): 1.1 ± 0.8 ng/mL
FFA [1, 7]: 0.7 ± 0.3 mmol/L
Glucose [1, 7]: 7.3 ± 0.5 mmol/L
Glycerol [1, 7]: 0.1 ± 0.1 mmol/L
Insulin [1, 7]: 3.5 ± 1.3 ng/mL
FFA ([1]; acute, CNTO 736 1 mgk, Basal): 1.1 ± 0.5 mmol/L
Glycerol ([1]; acute, CNTO 736 1 mgk, Basal): 0.2 ± 0.1 mmol/L
Insulin ([1]; acute, CNTO 736 1 mgk, Basal): 0.9 ± 0.6 ng/mL
FFA [1, 8]: 0.6 ± 0.4 mmol/L
Glucose [1, 8]: 8.0 ± 0.8 mmol/L
Glycerol [1, 8]: 0.1 ± 0.1 mmol/L
Insulin [1, 8]: 4.5 ± 1.7 ng/mL
food intake [2, 9]: significant reduction
water intake [2, 9]: significant reduction
food intake [2, 10]: significant reduction in food intake
water intake [2, 10]: observed only with exendin-4 treatment
basal or hyperinsulinemic rate of VLDL production [3]: did not change
glycerol turnover (lipolysis) ([4]; chronic administration, either dose, basal (fasting) or hyperinsulinemic conditions): did not affect glycerol turnover
insulin action / peripheral insulin sensitivity ([4]; chronic dosing, mice with diet-induced obesity): improve insulin action; also recorded: significantly improves peripheral insulin sensitivity
Body weight [4, 11]: 26.1 ± 1.9 g
Body weight [4, 12]: 26.1 ± 1.9 g
Body weight [4, 13]: 25.1 ± 1.3 g
gluconeogenesis in the fasting state (de novo glucose production) ([4]; chronic, i.p. daily for 4 weeks): significantly decreased gluconeogenesis; also recorded: inhibits hepatic gluconeogenesis
basal hepatic glucose production ([4]; chronic, i.p. daily for 4 weeks, both doses of CNTO 736 (1 or 0.1 mg/kg), exendin-4 7.1 μg/kg): significantly decreased
insulin-inhibition of hepatic glucose production ([4]; chronic, i.p. daily for 4 weeks, both doses of CNTO 736, exendin-4 7.1 μg/kg): increased insulin-inhibition of hepatic glucose production
whole body glucose disposal in the hyperinsulinemic state ([4]; chronic, i.p. daily for 4 weeks, high dose of CNTO 736 (1 mg/kg), exendin-4 7.1 μg/kg): significantly increased
gluconeogenesis in the fasting state (de novo glucose production) ([4]; chronic, i.p. daily for 4 weeks, listed as CNT0736): inhibited de novo glucose production
FFA [4, 11]: 1.1 ± 0.3 mmol/L
Glycerol [4, 11]: 0.2 ± 0.0 mmol/L
Insulin [4, 11]: 1.1 ± 0.6 ng/mL
FFA [4, 12]: 0.5 ± 0.1 mmol/L
Glucose [4, 12]: 7.6 ± 1.1 mmol/L
Glycerol [4, 12]: 0.1 ± 0.1 mmol/L
Insulin [4, 12]: 4.6 ± 1.0 ng/mL
FFA ([4]; chronic, CNTO 736 1 mgk, Basal): 1.1 ± 0.2 mmol/L
Glycerol ([4]; chronic, CNTO 736 1 mgk, Basal): 0.2 ± 0.1 mmol/L
Insulin ([4]; chronic, CNTO 736 1 mgk, Basal): 1.4 ± 1.3 ng/mL
FFA [4, 13]: 0.4 ± 0.1 mmol/L
Glucose [4, 13]: 7.6 ± 0.9 mmol/L
Glycerol [4, 13]: 0.1 ± 0.1 mmol/L
Insulin [4, 13]: 5.0 ± 1.9 ng/mL
basal and hyperinsulinemic rate of VLDL production [5]: significantly decreased; also recorded: decreases VLDL production
